Results on six compounds are retold here after ChEMBL document CHEMBL5634186, “Structure-Activity Relationship Study of Biselyngbyolide B Reveals Mitochondrial Fission-Induced Cytotoxicity in Cancer” (ACS Med Chem Lett, 2024).

Series [1] can be described thus: Cytotoxicity against HEK293 cells assessed as reduction in cell viability incubated for 16 hrs by MTT assay. Particulars: human. The format is toxicity, cell-based. (In general: Tetrazolium assays rely on reduction of a dye to a coloured formazan, in cell work by metabolically active cells.)
In another series the test system is HCT-116. Put plainly: Anticancer activity against human HCT-116 cells assessed as inhibition of cell viability incubated for 16 hrs by MTT assay. The format is functional, cell-based. Particulars: HCT-116, 16 h.

In general, IC50 refers to the concentration that inhibits the measured activity by half.

With `C/C=C/C/C(C)=C\[C@H]1C/C=C/C=C/C[C@H](C)/C=C(\C)[C@@H](OC)C[C@@H](O)C[C@@H](O)CC(=O)O1`, in series [1], the half-maximal inhibitory concentration (IC50) at 16 h was 20.8 µM. Also, the half-inhibitory concentration (IC50) in the series on HCT-116 is 0.1 µM.

With `CCCCC[C@H]1C/C=C/C=C/C[C@H](C)/C=C(\C)[C@@H](OC)C/C=C/[C@@H](O)CC(=O)O1`, in series [1], the IC50 at 16 h was 14.3 µM. In addition, the concentration for half-maximal inhibition (IC50) in the series with HCT-116 was determined as 8.1 µM.

As to `C/C=C/C/C(C)=C\[C@H]1C/C=C/C=C/C[C@H](C)/C=C(\C)[C@@H](OC)C/C=C/CCC(=O)O1`, the IC50 at 16 h in series [1] is 15.2 µM. Besides, the IC50 with HCT-116 stood at 15.6 µM.

Regarding `CO[C@H]1C/C=C/[C@@H](O)CC(=O)O[C@@H](c2ccc(C)cc2)C/C=C/C=C/C[C@H](C)/C=C/1C`, the IC50 at 16 h in series [1] was found to be 16.5 µM. Besides, the IC50 with HCT-116 came out at 7.8 µM.

As to `CCCC/C(C)=C\[C@H]1C/C=C/C=C/C[C@H](C)/C=C(\C)[C@@H](OC)C/C=C/[C@@H](O)CC(=O)O1`, in series [1], the IC50 at 16 h stood at 11.3 µM. Further, in the series on HCT-116, the IC50 was 8.1 µM.

As to `C/C=C/C/C(C)=C\[C@H]1C/C=C/C=C/C[C@H](C)/C=C/[C@@H](OC)C/C=C/[C@@H](O)CC(=O)O1`, in series [1], the 50% inhibitory concentration (IC50) at 16 h is 11.8 µM. Further, the half-inhibitory concentration (IC50) in the series on HCT-116 worked out at 7.1 µM.
